Holding throughout (assay type): in vivo, human
Assay [1] concerns common cold-like and/or flu-like illnesses. The assay can be described thus: Treatment of Patient I (case report, daily NBMI). The note with it: man, up to 300 mg/day NBMI almost daily for approximately 14 years; self-reported. The protocol: A person residing in the USA reported taking doses of up to 300 mg/day NBMI almost daily since 2006.
Before taking NBMI, the person regularly became sick with such illnesses due to their work as a university professor and being an avid outdoorsman.

For assay [2], the system named is common cold-like and/or flu-like symptoms. The assay can be described thus: Treatment of Patient II (case report, daily NBMI). The note with it: self-reported. From the text: A person residing in the USA, the spouse of Patient I, reported that they were often inflicted with common cold-like and/or flu-like symptoms due to their profession as a registered nurse.

Assay [3] has as its system viral infections. The assay can be described thus: Treatment of Patient with ME/CFS I (case report). The protocol:
A person residing in Sweden and diagnosed with myalgic encephalomyelitis/chronic fatigue syndrome (ME/CFS), reported that they started to use NBMI extensively in 2010 starting with 600 mg/day for 1.5 months, then 400 mg/day for 1.5 months and then 300 mg/day for three months.
Due to ME/CFS, the person was often inflicted with viral infections.

In assay [4] the test system is viral infections. Put plainly: Treatment of Patient with ME/CFS II (case report). The conditions noted are these: person with ME/CFS and long history of viral infections, 300 mg/day NBMI from 2010; self-reported. An excerpt: The person was often sick and had, therefore, a poor quality of life.
Where [5] appears, read: person with ME/CFS, 2010, 600 then 400 then 300 mg/day, self-reported.

Regarding `O=C(NCCS)c1cccc(C(=O)NCCS)c1` [NBMI, N,N-bis-2-mercaptoethyl isophthalamide], the “occurrence of common cold-like and/or flu-like illnesses” value in assay [1] is reported as “has not become unwell with common cold-like and/or flu-like illnesses”. Also, the “common cold-like and/or flu-like symptoms, recent years” value in assay [2] (person, NBMI daily, over the past 5 years) was “has not experienced any such symptoms”. Moreover, the “flu-like symptoms after starting NBMI” value in assay [2] (registered nurse, NBMI daily since 2010) is given as “great decrease in having flu-like symptoms”. Moreover, the “frequency and severity of infections on restarting NBMI” value in the assay with viral infections [3] (person with ME/CFS, 300 mg/day again from late 2011, self-reported) was “got fewer and less severe”. Further, the “frequency of viral infections” value in the assay with viral infections [3] (person with ME/CFS, 2010, 600 mg/day for 1.5 months, then 400 mg/day for 1.5 months, then 300 mg/day for three months, self-reported) is reported as “viral infections became fewer”. For the same molecule, in the assay on viral infections [3] (setting [5]), the “intensity of viral infections (pain, headache, fatigue, time bedridden)” value is listed as “intensity was less severe” and the “recovery time from viral infections” value is recorded as “recovery time was quicker”. Moreover, the “frequency and severity of viral infections after halting the treatment” value in the assay with viral infections [3] (person with ME/CFS, after halting NBMI in summer 2010, self-reported) is “viral infections became more frequent and more severe”. Further, the “severity and duration of virus infection when NBMI is taken during infection” value in the assay with viral infections [3] (person with ME/CFS, occasional NBMI when inflicted with a virus infection, compared with not taking NBMI, patient's impression) is “less severe and shorter in duration”. The “occurrence of viral infections” value in the assay with viral infections [4] was “no longer suffered from viral infections”.

Source of the values: patent US20230181498A1, “NEW USE OF N,N-BIS-2-MERCAPTOETHYL ISOPHTHALAMIDE” (EMERAMED LIMITED, priority 2020, published 2023).
